# Measurements taken from PubChem BioAssay AID1918957 (Molecular Pharmacology Branch, DTP, NCI, 2023).
# “And” between values parts separate entries of the source, which are not always exact repeats. Equal values may be shown once.
# System: NCI-H1876 complex spheroid viability
# Assay: Anticancer human tumor NCI-H1876 cell line growth inhibition [LSD1];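 note: spheroids exposed to compounds for one week before readout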;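 for viability, T/C: 100% = DMSO vehicle-treated spheroids so lower means fewer viable cells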
# Settings: for viability, T/C: stronger effect = lower value
# Text: Multicellular complex tumor spheroid response to LSD1 Inhibitor Iadademstat in combination with a variety of drugs and investigational agents in selected tumor cell lines
# The current study was undertaken to assess response to LSD1 inhibitors in combination with standard-of-care drugs and investigational agents in solid tumor complex spheroid models as well as in the K-562 leukemia. Complex spheroids include a stromal component modeled by human endothelial cells (HUVEC) and fibroblasts modeled by human mesenchymal stem cells (MSCs). The concentration ranges selected for each drug and investigational agent were based upon clinically achievable concentrations if the clinical Cmax of the agent was known.
# Compounds. The drugs and investigational agents used in this study are listed on Table 1. All of the agents used, including staurosporine (NSC755774) and gemcitabine (NSC613327), were obtained from the Developmental Therapeutics Program, NCI. FDA-approved anticancer drugs are available from the NCI at http://dtp.nci.nih.gov/branches/dscb/oncology_drugset_explanation.html. Drugs and investigational agents were >95% pure by proton nuclear magnetic resonance (NMR) and liquid chromatography/mass spectrometry (LC/MS). Stock solutions were prepared at 400x in DMSO, stored at -70 degrees C, and diluted in fresh medium prior to their use. The final concentration of DMSO in cell culture wells never exceeded 0.25% (v/v). The FDA-approved anticancer drug set is available from the Developmental Therapeutics Program at https://dtp.cancer.gov/organization/dscb/obtaining/available_plates.htm. All drugs and investigational agents were tested over a range starting from a high concentration at or near the clinical Cmax and decreasing in half-log increments. If the clinical Cmax for an agent had not been determined, the highest concentration tested was 10 microM.
# Cell Lines. The patient-derived cancer cell (PDC) lines: 292921-168-R-J2-PDC, K24384-001-R-PDC, and 521955-158-R2-J5-PDC pancreatic carcinomas, 556581-035-R-J1 ovarian carcinoma, 324938-238-R-J1-PDC, 855422-203-R-J1-PDC and 883617-216-R-J1-PDC urothelial bladder carcinomas, 743489-274-T-PDC renal cell carcinoma, 138582-R-J1 Merkel cell tumor, K60290-347-R-J1 and K57222-313-R-J1-PDC glioblastomas, 653999-131-R-J2-PDC, LG0703-F948-PDC, and 349418-098-R-PDC non-small cell lung carcinomas, 885512-296-R-J2-PDC, 171881-019-R-J1-PDC breast carcinomas and 186277-243-T-J2-PDC and 233499-124-R-J2-PDC colon carcinomas were obtained from the NCI Patient-Derived Models Repository (PDMR, https://pdmr.cancer.gov). The established cell lines NCI/ADR-RES (RRID:CVCL_14520 and OVCAR-5 (RRID:CVCL_1628) ovarian carcinomas, 786-O (RRID:CVCL_1051) and A498 (RRID:CVCL_A498) renal cell carcinoma, NCI-H211 (ATCC, cat. CRL-5824; RRID:CVCL_1529), NCI-H196 (ATCC, cat. CRL-5823, RRID:CVCL_1509), SW 1271 (ATCC, cat. CRL-2177, RRID:CVCL_1716) and NCI-H1876 (ATCC, cat. CRL-5902, RRID:CVCL_1503) small cell lung carcinomas, MDA-MB-231 (RRID:CVCL_0062) and MDA-MB-468 (RRID:CVCL_0419)breast carcinomas (10-12). Pooled donor human umbilical vein endothelial cells (HUVEC, Lonza, cat. CC-2519) and human mesenchymal stem cells (hMSC, Lonza, cat. PT-2501) were purchased from Lonza (Walkersville, MD).
# Cell Culture. All cells were maintained in an incubator at 37 degrees C and 5% CO2 with 95% humidity. The PDC lines were cultured according to standard operating procedures established by the NCI PDMR (https://pdmr.cancer.gov). Briefly all PDCs were thawed and cultured in Matrigel-coated flasks prepared with a working solution of 1X Ham's F-12 nutrient mix, without supplementation (Invitrogen, Waltham, MA, cat. 11765054), 100 U/mL penicillin-streptomycin (Invitrogen, cat. 15140122), and 2.5% Matrigel (Corning Inc., Corning, NY, cat. 354248) for the first three passages. […]
# [1] = curve of first compound, second compound 0.1 µM
# [2] = curve of first compound, second compound 0.316 µM
# [3] = curve of first compound, second compound 1 µM
# [4] = curve of first compound, second compound 3.16 µM
# [5] = curve of first compound, second compound 10 µM
# [6] = second compound 0.1 µM, first compound 0.00949 µM
# [7] = second compound 0.1 µM, first compound 0.03 µM
# [8] = second compound 0.1 µM, first compound 0.0949 µM
# [9] = second compound 0.1 µM, first compound 0.3 µM
# [10] = second compound 0.1 µM, first compound 0.949 µM
# [11] = second compound 0.1 µM, first compound 3 µM
# [12] = second compound 0.316 µM, first compound 0.00949 µM
# [13] = second compound 0.316 µM, first compound 0.03 µM
# [14] = second compound 0.316 µM, first compound 0.0949 µM
# [15] = second compound 0.316 µM, first compound 0.3 µM
# [16] = second compound 0.316 µM, first compound 0.949 µM
# [17] = second compound 0.316 µM, first compound 3 µM
# [18] = second compound 1 µM, first compound 0.00949 µM
# [19] = second compound 1 µM, first compound 0.03 µM
# [20] = second compound 1 µM, first compound 0.0949 µM
# [21] = second compound 1 µM, first compound 0.3 µM
# [22] = second compound 1 µM, first compound 0.949 µM
# [23] = second compound 1 µM, first compound 3 µM
# [24] = second compound 3.16 µM, first compound 0.00949 µM
# [25] = second compound 3.16 µM, first compound 0.03 µM
# [26] = second compound 3.16 µM, first compound 0.0949 µM
# [27] = second compound 3.16 µM, first compound 0.3 µM
# [28] = second compound 3.16 µM, first compound 0.949 µM
# [29] = second compound 3.16 µM, first compound 3 µM
# [30] = second compound 10 µM, first compound 0.00949 µM
# [31] = second compound 10 µM, first compound 0.03 µM
# [32] = second compound 10 µM, first compound 0.0949 µM
# [33] = second compound 10 µM, first compound 0.3 µM
# [34] = second compound 10 µM, first compound 0.949 µM
# [35] = second compound 10 µM, first compound 3 µM
smiles,measurement,setting,value
Nc1ccn(C2OC(CO)C(O)C2(F)F)c(=O)n1 (stereo unspecified),"viability, T/C",compound 0.000949 µM,98.6% and 98.7%
same,"viability, T/C",compound 0.003 µM,53.8% and 86.9%
same,"viability, T/C",compound 0.00949 µM,29.2% and 23.5%
same,"viability, T/C",compound 0.03 µM,23.6% and 9.68%
same,"viability, T/C",compound 0.0949 µM,11.3% and 8.77%
same,"viability, T/C",compound 0.3 µM,10.5% and 7.09%
same,IC50,curve of compound,0.0037 µM and 0.00587 µM
COc1cc(C2c3cc4c(cc3C(OC3OC5COC(C)OC5C(O)C3O)C3COC(=O)C23)OCO4)cc(OC)c1O (stereo unspecified) + NC1CC1c1ccc(-c2cccc(O)c2)cc1,IC50,[1],0.0366 µM
same,IC50,[2],0.0346 µM
same,IC50,[3],0.0352 µM
same,IC50,[4],0.0404 µM
same,IC50,[5],0.0353 µM
same,"viability, T/C",[6],87.6%
same,"viability, T/C",[7],56.3%
same,"viability, T/C",[8],20.1%
same,"viability, T/C",[9],11.4%
same,"viability, T/C",[10],8.84%
same,"viability, T/C",[11],10.2%
same,"viability, T/C",[12],84.4%
same,"viability, T/C",[13],54.4%
same,"viability, T/C",[14],18.6%
same,"viability, T/C",[15],10.9%
same,"viability, T/C",[16],9.79%
same,"viability, T/C",[17],8.38%
same,"viability, T/C",[18],92%
same,"viability, T/C",[19],55.2%
same,"viability, T/C",[20],18%
same,"viability, T/C",[21],11.6%
same,"viability, T/C",[22],9.23%
same,"viability, T/C",[23],8.55%
same,"viability, T/C",[24],93.9%
same,"viability, T/C",[25],60.5%
same,"viability, T/C",[26],19.9%
same,"viability, T/C",[27],13%
same,"viability, T/C",[28],9%
same,"viability, T/C",[29],8.78%
same,"viability, T/C",[30],85.3%
same,"viability, T/C",[31],54.9%
same,"viability, T/C",[32],20.7%
same,"viability, T/C",[33],13.8%
same,"viability, T/C",[34],11%
same,"viability, T/C",[35],9.82%
Nc1ncn(C2CC(O)C(CO)S2)c(=O)n1 (stereo unspecified),"viability, T/C",compound 0.000949 µM,105% and 97.8%
same,"viability, T/C",compound 0.003 µM,96.8% and 99.5%
same,"viability, T/C",compound 0.00949 µM,100% and 95.5%
same,"viability, T/C",compound 0.03 µM,81.2% and 81.3%
same,"viability, T/C",compound 0.0949 µM,83.2% and 71.1%
same,"viability, T/C",compound 0.3 µM,59.5% and 50.1%
same,IC50,curve of compound,> 0.3 µM
COc1cc(Nc2ncc3c(n2)-c2ccc(Cl)cc2C(c2c(F)cccc2OC)=NC3)ccc1C(=O)O,"viability, T/C",compound 0.00316 µM,66.5% and 69.5%
same,"viability, T/C",compound 0.01 µM,54% and 64.2%
same,"viability, T/C",compound 0.0316 µM,45.4% and 48.2%
same,"viability, T/C",compound 0.1 µM,42.4% and 38.4%
same,"viability, T/C",compound 0.316 µM,37.3% and 31.5%
same,"viability, T/C",compound 1 µM,28.3% and 19.5%
same,IC50,curve of compound,0.0225 µM and 0.0332 µM
Nc1ncn(C2CC(O)C(CO)S2)c(=O)n1 (stereo unspecified) + NC1CC1c1ccc(-c2cccc(O)c2)cc1,IC50,[1],> 0.3 µM
same,IC50,[2],> 0.3 µM
same,IC50,[3],> 0.3 µM
same,IC50,[4],0.289 µM
same,IC50,[5],> 0.3 µM
same,"viability, T/C","second compound 0.1 µM, first compound 0.000949 µM",115%
same,"viability, T/C","second compound 0.1 µM, first compound 0.003 µM",111%
same,"viability, T/C",[6],99.4%
same,"viability, T/C",[7],91.2%
same,"viability, T/C",[8],71%
same,"viability, T/C",[9],51.3%
same,"viability, T/C","second compound 0.316 µM, first compound 0.000949 µM",120%
same,"viability, T/C","second compound 0.316 µM, first compound 0.003 µM",110%
same,"viability, T/C",[12],99.7%
same,"viability, T/C",[13],86.4%
same,"viability, T/C",[14],73.1%
same,"viability, T/C",[15],54.4%
same,"viability, T/C","second compound 1 µM, first compound 0.000949 µM",110%
same,"viability, T/C","second compound 1 µM, first compound 0.003 µM",106%
same,"viability, T/C",[18],103%
same,"viability, T/C",[19],90.1%
same,"viability, T/C",[20],79.4%
same,"viability, T/C",[21],54.8%
same,"viability, T/C","second compound 3.16 µM, first compound 0.000949 µM",106%
same,"viability, T/C","second compound 3.16 µM, first compound 0.003 µM",103%
same,"viability, T/C",[24],104%
same,"viability, T/C",[25],89%
same,"viability, T/C",[26],72.1%
same,"viability, T/C",[27],49.1%
same,"viability, T/C","second compound 10 µM, first compound 0.000949 µM",107%
same,"viability, T/C","second compound 10 µM, first compound 0.003 µM",100%
same,"viability, T/C",[30],97.2%
same,"viability, T/C",[31],96.3%
same,"viability, T/C",[32],69.2%
same,"viability, T/C",[33],50.4%
O=C(C=Cc1cccc(S(=O)(=O)Nc2ccccc2)c1)NO + NC1CCC(NC2CC2c2ccccc2)CC1,IC50,[1],0.196 µM
same,IC50,[2],0.193 µM
same,IC50,[3],0.179 µM
same,IC50,[4],0.193 µM
same,IC50,[5],0.158 µM
same,"viability, T/C",[6],109%
same,"viability, T/C",[7],103%
same,"viability, T/C",[8],89.3%
same,"viability, T/C",[9],27%
same,"viability, T/C",[10],12.8%
same,"viability, T/C",[11],10.9%
same,"viability, T/C",[12],103%
same,"viability, T/C",[13],101%
same,"viability, T/C",[14],87%
same,"viability, T/C",[15],27.1%
same,"viability, T/C",[16],13.9%
same,"viability, T/C",[17],19.6%
same,"viability, T/C",[18],103%
same,"viability, T/C",[19],105%
same,"viability, T/C",[20],77.3%
same,"viability, T/C",[21],27.3%
same,"viability, T/C",[22],6.13%
same,"viability, T/C",[23],0.61%
same,"viability, T/C",[24],101%
same,"viability, T/C",[25],106%
same,"viability, T/C",[26],82.2%
same,"viability, T/C",[27],29.8%
same,"viability, T/C",[28],4.78%
same,"viability, T/C",[29],0.3%
same,"viability, T/C",[30],105%
same,"viability, T/C",[31],99.3%
same,"viability, T/C",[32],69.8%
same,"viability, T/C",[33],26.6%
same,"viability, T/C",[34],3.06%
same,"viability, T/C",[35],19.4%
